According to the supplement of paper PMC10307832:

Experiments:
Assay in all cases: relative viability (nuclei count vs DMSO), 5 days (fraction); higher = more cells survive
GSK-J4 + Pemetrexed = compound: CCOC(=O)CCNc1cc(N2CCc3ccccc3CC2)nc(-c2ccccn2)n1 [GSK-J4] + Nc1nc2[nH]cc(CCc3ccc(C(=O)N[C@@H](CCC(=O)O)C(=O)O)cc3)c2c(=O)[nH]1 [Pemetrexed] (partner 0.2 µM)
Summary of the method: (§1)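 The day after seeding in 1536-well plates, lung cancer cell lines were treated by pin tool with a single drug, or with a fixed anchor-drug dose together with five library-drug doses (not always all listed) in √10 steps. After 5 days, a combined fix-and-stain solution (final 0.05% Triton X-100, 1% formaldehyde, 1 ug/ml Hoechst) was added. Nuclei counted on 4× images gave relative viability as treated counts over vehicle counts, reported as the median of duplicate plates.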

AZ3146 + OSI-027 = compound: CN1CCC(CC1)OC2=CC(=C(C=C2)NC3=NC=C4C(=N3)N(C(=O)N4C)C5CCCC5)OC [AZ3146] + COc1cccc2cc(-c3nc([C@H]4CC[C@H](C(=O)O)CC4)n4ncnc(N)c34)[nH]c12 [OSI-027] (partner 0.5 µM)
Summary of the method: as §1

AZ3146 + Decitabine = compound: CN1CCC(CC1)OC2=CC(=C(C=C2)NC3=NC=C4C(=N3)N(C(=O)N4C)C5CCCC5)OC [AZ3146] + Nc1ncn([C@H]2C[C@H](O)[C@@H](CO)O2)c(=O)n1 [Decitabine] (partner 2 µM)
Summary of the method: as §1

AZ3146 + Olaparib = compound: CN1CCC(CC1)OC2=CC(=C(C=C2)NC3=NC=C4C(=N3)N(C(=O)N4C)C5CCCC5)OC [AZ3146] + O=C(c1cc(Cc2n[nH]c(=O)c3ccccc23)ccc1F)N1CCN(C(=O)C2CC2)CC1 [Olaparib] (partner 8 µM)
Summary of the method: as §1

Cell Line | relative viability (GSK-J4 + Pemetrexed; first compound 0.5 µM) | relative viability (GSK-J4 + Pemetrexed; first compound 1.581 µM) | relative viability (GSK-J4 + Pemetrexed; first compound 5 µM) | relative viability (GSK-J4 + Pemetrexed; first compound 15.81 µM) | relative viability (GSK-J4 + Pemetrexed; first compound 50 µM) | relative viability (AZ3146 + OSI-027; first compound 0.08 µM) | relative viability (AZ3146 + OSI-027; first compound 0.253 µM) | relative viability (AZ3146 + OSI-027; first compound 0.8 µM) | relative viability (AZ3146 + OSI-027; first compound 2.53 µM) | relative viability (AZ3146 + OSI-027; first compound 8 µM) | relative viability (AZ3146 + Decitabine; first compound 0.08 µM) | relative viability (AZ3146 + Decitabine; first compound 0.8 µM) | relative viability (AZ3146 + Decitabine; first compound 2.53 µM) | relative viability (AZ3146 + Decitabine; first compound 8 µM) | relative viability (AZ3146 + Olaparib; first compound 0.08 µM) | relative viability (AZ3146 + Olaparib; first compound 0.8 µM) | relative viability (AZ3146 + Olaparib; first compound 2.53 µM) | relative viability (AZ3146 + Olaparib; first compound 8 µM) | relative viability (AZ3146 + Decitabine; first compound 0.253 µM) | relative viability (AZ3146 + Olaparib; first compound 0.253 µM)
SW 900 | 0.478 | 0.478 | 0.475 | 0.442 | 0.526 | 0.459 | 0.491 | 0.613 | 0.549 | 0.387 | 0.389 | 0.442 | 0.451 | 0.558 | 0.706 | 0.785 | 0.846 | 0.754 | – | –
PC-3 [JPC-3] | 1.14 | 0.848 | 1.03 | 0.938 | 0.944 | 0.624 | 0.792 | 0.789 | 0.77 | 0.776 | 0.768 | 0.806 | 0.81 | 0.85 | 1.04 | 1.01 | 1.25 | 1.09 | – | –
NCI-H1648 | 0.618 | – | 1.02 | – | 0.873 | – | 0.268 | 0.233 | 0.253 | 0.302 | – | 0.514 | 0.562 | 0.429 | – | 0.987 | 1.18 | 0.802 | – | –
A549 | – | – | – | – | – | – | – | – | – | – | 0.318 | 0.332 | 0.316 | 0.205 | 0.203 | 0.419 | 0.43 | 0.269 | 0.284 | 0.268
A-427 | 0.932 | 0.654 | – | 0.883 | 0.463 | 0.431 | 0.586 | 0.429 | 0.574 | 0.338 | 0.511 | 0.528 | 0.56 | 0.401 | 0.689 | 0.758 | 0.794 | 0.652 | 0.529 | 0.813
NCI-H1975 | 0.249 | 0.285 | 0.212 | 0.331 | 0.276 | 0.677 | 0.747 | 0.785 | 0.71 | 0.416 | 0.415 | 0.367 | 0.379 | 0.415 | 0.748 | 0.813 | 0.793 | 0.418 | 0.601 | 0.774
LU99A | 0.16 | 0.158 | – | 0.178 | 0.166 | 0.28 | 0.306 | 0.309 | 0.317 | 0.228 | – | 0.879 | 0.82 | 1.02 | – | 0.24 | 0.271 | 0.257 | 0.848 | 0.26
NCI-H1755 | 0.4 | 0.349 | 0.398 | 0.388 | 0.365 | 0.589 | 0.737 | 0.575 | 0.72 | 0.802 | 0.68 | 0.739 | 0.842 | 0.839 | 0.867 | 0.89 | 0.945 | 0.923 | 0.716 | 0.892
LOU-NH91 | 0.39 | 0.381 | 0.36 | 0.346 | 0.441 | 0.726 | 0.61 | 0.7 | 0.702 | 0.745 | 0.816 | 0.886 | 0.829 | 0.783 | 0.922 | 0.972 | 0.904 | 0.925 | 0.77 | 0.91
SW 1573 | 0.81 | 0.804 | 0.768 | 0.756 | 0.375 | 0.678 | 0.633 | 0.453 | 0.662 | 0.204 | 0.509 | 0.542 | 0.397 | 0.162 | 0.569 | 0.575 | 0.374 | 0.227 | 0.605 | 0.507
CAL-12T | 1.2 | 1.15 | 1.4 | 1.27 | 0.946 | 0.798 | 0.652 | 0.612 | 0.805 | 0.655 | – | – | – | – | 0.733 | 0.717 | 0.658 | 0.6 | – | 0.822
NCI-H1734 | 0.424 | 0.412 | 0.391 | 0.407 | 0.364 | 0.592 | 0.554 | 0.641 | 0.591 | 0.553 | 0.4 | 0.429 | 0.5 | 0.484 | 0.58 | 0.632 | 0.607 | 0.612 | 0.499 | 0.61
LCLC-97TM1 | 0.15 | 0.153 | 0.198 | 0.148 | 0.181 | 0.501 | 0.585 | 0.364 | 0.415 | 0.396 | 0.209 | 0.225 | 0.222 | 0.248 | 0.52 | 0.458 | 0.447 | 0.345 | 0.254 | 0.535
BEN | 0.933 | 0.759 | 0.501 | 0.731 | 0.573 | – | 0.306 | 0.206 | 0.285 | 0.309 | – | 0.611 | 0.759 | 0.644 | – | 1.12 | 0.899 | 0.917 | 0.673 | 1.07
EBC-1 | – | – | – | – | – | – | – | – | – | – | – | – | – | – | 0.699 | 0.671 | 0.634 | 0.397 | – | 0.71
COR-L23 | 0.185 | 0.192 | – | 0.212 | 0.207 | 0.685 | 0.766 | 0.781 | 0.835 | 0.769 | 0.377 | 0.418 | 0.467 | 0.369 | 0.28 | 0.353 | 0.361 | 0.324 | 0.461 | 0.363
NCI-H2009 | 0.964 | 0.846 | 0.769 | 0.997 | 0.576 | 0.631 | 0.621 | 0.651 | 0.703 | 0.436 | 0.372 | 0.41 | 0.417 | 0.328 | 0.642 | 0.742 | 0.649 | 0.604 | 0.333 | 0.662
NCI-H727 | – | – | – | – | – | 0.674 | 0.56 | 0.595 | 0.671 | 0.413 | 0.806 | 0.714 | 0.766 | 0.783 | 0.632 | 0.701 | 0.853 | 0.775 | 0.913 | 0.632
